From PMC8648872, “A host-directed macrocyclic peptide therapeutic for MDR gram negative bacterial infections” (Scientific Reports, 2021) come the findings set out here.

The nature of series [1]: Stability in aqueous media. Type of series: physicochemical. To be noted: including acidic solutions as low as pH 2.0; preliminary, data not shown.
The test system of series [2] is human whole blood. The experiment in a line: Cytokine release by human whole blood incubated with live Kp-1705. The series is classed as cell-based. As to conditions: human whole blood 1:10 in RPMI-1640, 1000 CFU/ml Kp-1705, 4 h, 37 °C, ELISA. As for the experimental part: Log-phase […] grown in TSB were pelleted, washed twice in PBS, and suspended to 1 × 10^5 CFU/ml in RPMI-1640. EDTA-anticoagulated blood collected from a healthy adult human donor was incubated at a final dilution of 1:10 in RPMI-1640 with 1000 CFU/ml of Kp-1705 and varied concentrations of MTD12813 for 4 h 37 °C in 5% CO2 with gentle rocking. Incubation supernatants were frozen at − 80 °C. TNF and IL-6 were quantified by ELISA (Invitrogen KHC3011, KHC0061).
On the technique in general: An ELISA detects its analyte on a solid surface through an enzyme-linked reagent.

Series [3] can be described thus: Peptide stability with log-phase Kp-1705 (bacterial proteases). Type of series: in vitro ADME, K. pneumoniae. To be noted: suspension of log-phase Kp-1705 bacteria, log-phase Kp-1705 (5 × 10^7 CFU/ml), 50 mM HEPES pH 7.4, 37 °C, LC–MS/MS, read-out: MTD12813 found intact. As for the experimental part:
MTD12813 (final concentration of 100 µg/ml) was added to either 90% human EDTA plasma or 90% human serum and incubated at 37 °C for 48 h. Samples were processed by addition of 10% HOAc and 5% ACN (final concentrations) at time 0 and 48 h, and MTD12813 was quantified by C18 RP-HLPC on an Acquity H-Class UPLC with an analytical PDA detector using Empower 3 software (Waters). All samples were performed with technical replicates and analyzed by UPLC in duplicate and the experiment repeated once. […] A time 0 h sample was collected, and the remaining suspension incubated at 37 °C for 24 h. Samples were processed by addition of 5% formic acid/5% acetonitrile, vortexed, and clarified at 22,000×g for 10 min. Supernatant MTD12813 was then quantified by LC–MS/MS as described in PK section above. All samples were performed with technical replicates and analyzed by LC–MS/MS in duplicate.

Series [4] concerns plasma cytokines. The series is described as follows: Plasma multiplex cytokine analysis in Kp-1705 sepsis. Type of series: in vivo, BALB/c mice. As to conditions: 1.25 mg/kg i.p. 1 h p.i. On the procedure: EDTA-anticoagulated blood was collected aseptically by terminal cardiac puncture and analyzed for complete blood cell count using an Element HT5 hematology analyzer (Heska). Blood plasma and clarified peritoneal lavage were prepared by two-step centrifugation described previously. Plasma cytokine levels were quantified using a mouse-specific MILLIPLEX MAP kit (Millipore Cat# MCYTMAG-70K) as described.
Supplemental Table 1. Mice were challenged i.p. with Kp-1705 and treated 1 h later with MTD12813 (1.25 mg/kg i.p.) or saline. The sham cohort received bacteria-free suspension buffer at t=0 followed by saline 1 h later. Mice were euthanized 2, 4, or 24 h p.i., and plasma samples were subjected to multiplex cytokine analysis. P values calculated using ANOVA with Uncorrected Fisher’s LSD comparing saline and MTD12813 treated mice at respective time points.

Structures are written as SMILES. Where a SMILES comes first, the peptide text is derived from it. Bridges are numbered along the chain shown (N, C = ends).

For `CC[C@H](C)[C@@H]1NC(=O)[C@@H]2CSSC[C@H](NC(=O)[C@H]([C@@H](C)CC)NC(=O)[C@@H]3CSSC[C@H](NC1=O)C(=O)N[C@@H](C(C)C)C(=O)NCC(=O)N[C@@H](CCCNC(=N)N)C(=O)NCC(=O)N3)C(=O)N[C@@H](C(C)C)C(=O)N[C@@H](CCCNC(=N)N)C(=O)N[C@@H](CCCNC(=N)N)C(=O)N[C@@H](CCCNC(=N)N)C(=O)N2` [MTD12813] (cyclo(CICVGRGCICVRRR); disulfide 1-10, 3-8), the “stability in aqueous media” value in series [1] was “exceedingly stable”. In addition, the “release of TNF and IL-6” value in series [2] was “concentration-dependently suppressed”. For the same molecule, in series [3], the remaining at 24 h, 1.25 µg/ml stood at 72.4 ± 0.93%. Further, in series [4] (2 h p.i.), the “plasma CCL4 and CXCL2” value is recorded as “statistically significant reductions”. Moreover, in series [4] (4 h p.i.), the “plasma IL-9 and IL-15 levels” value is “significant increases”; the “plasma TNF, IL-6 and CXCL1 (KC)” value is “significantly reduced”. Further, the “change of plasma TNF versus saline” value in series [4] (24 h p.i.) is -89.8%.
